Data as given in US9415011B1, “Method for treatment of liver cancer and inhibition of metastasis with CXC-chemokine-receptor 4-targeted nanoparticle” (National Tsing Hua University, priority 2015, dated 2016).

Legend:
orthotopic HCA-1 tumor [1] = test: Syngeneic orthotopic murine HCC model, sorafenib and AMD3100-modified nanoparticle; assay type: in vivo, C3H mice; details: sorafenib 50 mg/kg daily for 14 days
From the text: 4 to 6-week-old male C3H/HeNCrNarl mice (weight: 25 g) were purchased from National Laboratory Animal Center (Taipei, Taiwan). In order to create hepatocellular carcinoma model, every mouse was orthotopically injected with HCA-1 cells (10^6 cells per mouse) in liver.
On the other hand, HCA-1 cells were intrahepatic ally implanted into C3H mice to establish a syngeneic orthotopic murine HCC model. For evaluation of mean vessel density (MVD) and hypoxic induction, mice without any treatment were defined as Negative control group, while mice treated with free sorafenib alone were defined as Positive control group. Mice treated with free sorafenib and free AMD3100 were defined as Comparative. For the experimental groups, mice treated with AMD3100-modified lipid-coated nanoparticle of the present invention were defined as Experimental group 1, while mice treated with sorafenib and AMD3100-modified lipid-coated nanoparticle of the present invention together were defined as Experimental group 2.
After HCC tumors were established, mice were treated according to the above mentioned Positive control group, Comparative group, Experimental group 1, and Experimental group 2 with sorafenib given at a dose of 50 mg/kg daily for 14 days. […] On the other hand, the change in SDF1α expression as a consequence of treatment-induced hypoxia was examined.

JHH-7 cells [2] = test: Cell viability under sorafenib with recombinant SDF1α; assay type: cell-based, human; details: JHH-7, in the presence of sorafenib
From the text: (§1) To examine cell viability, cells without any treatment were defined as Negative control group, while cells treated with free sorafenib alone were defined as Positive control group. Meanwhile, cells treated with sorafenib in the presence of recombinant SDF1α were defined as Comparative group 1, while cells treated with free sorafenib and free AMD3100 were defined as Comparative group 2. Regarding the experimental groups, cells treated with sorafenib-loaded lipid-coated nanoparticle without AMD3100 modification were defined as Experimental group 1, while cells treated with sorafenib-loaded AMD3100-modified lipid-coated nanoparticle were defined as Experimental group 2.
(§2) To determine whether the SDF1α/CXCR4 axis mediates HCC resistance to sorafenib treatment, both murine HCC (HCA-1) and human HCC (JHH-7) cell lines were firstly exposed to recombinant SDF1α in the presence of sorafenib.

HCA-1 cells [3] = test: as above; assay type: cell-based, murine; details: HCA-1, in the presence of sorafenib
From the text: as §1, §2

[4] = In vivo pharmacokinetics of C6 in blood; parameters: species or system C3H mice; details: 2 mg/kg, mice with orthotopic HCA-1 tumor
Experimental: To examine the pharmacokinetics profile in vivo, firstly, C6-loaded lipid-coated PLGA nanoparticle without AMD3100 modification (DOP-C6) and C6-loaded AMD3100-modified lipid-coated PLGA nanoparticle (ADOP-C6) were prepared according to the method set forth above. Then, C3H mice with orthotopic HCA-1 tumor were administered with free C6, DOP-C6 and ADOP-C6 at a dosage of 2 mg/kg. 40 μl of blood was collected from the tail artery and mixed with 10 μL of EDTA (50 mM) at different periods of time. The fluorescence intensity was measured by the plate reader (Fluoroskan Ascent FL, Thermo Scientific) at an excitation wavelength of 485 nm and an emission wavelength of 538 nm C6 concentration was normalized and calculated from a standard curve obtained by spiking known amounts of free C6 or C6-loaded nanoparticles in blood obtained from uninjected mice.

JHH-7 cells [5] = test: In vitro cytotoxicity, MTT assay; assay type: cell-based, human; details: JHH-7, 48 hours, sorafenib 0.25 μM, AMD3100 0.2 μM
Experimental: (§3) For cytotoxicity examination of the CXCR4-targeted lipid-coated PLGA nanoparticle of the present invention, HCA-1 or JHH-7 cells were seeded in 96-well transparent plates (Costar, Ill., USA) at a density of 1000 cells/well in a medium and were incubated for 12 hours. After confluency reached 10%, the medium was replaced with RPMI-1640 media containing DOPSor, ADOPSor, free DOPA, ADOP, or DOPSor with free AMD3100 at the equivalent sorafenib concentration of 0.25 μM. […] All cells were incubated for 48 hours. After incubation for another 3 hours, MTT assay was utilized to subsequently measure the cell viability. The absorbance of the wells was measured by Multiskan (Thermo, USA) at 570 nm and background absorbance was subtracted from all data. The percentage of cell viability was calculated by normalization of all values to the control group.

HCA-1 cells [6] = test: In vitro cytotoxicity, MTT assay; assay type: cell-based, murine; details: HCA-1, 48 hours, sorafenib 0.25 μM, AMD3100 0.2 μM
Experimental: as §3

VEGF [7] = test: VEGF expression by western blot; assay type: cell-based, murine; details: HCA-1
From the text: (§4) Firstly, cells treated with free control siRNA were defined as Control group, while cells treated with free anti-VEGF siRNA were defined as Comparative group. Cells treated with anti-VEGF siRNA-loaded lipid-coated nanoparticle without AMD3100 modification were defined as Experimental group 1, while cells treated with anti-VEGF siRNA-loaded AMD3100-modified lipid-coated nanoparticle were defined as Experimental group 2.

VEGF [8] = test: VEGF expression by western blot; assay type: cell-based, human; details: JHH-7
From the text: as §4

orthotopic HCA-1 tumor [9] = test: In vivo tumor uptake of fluorescence-labeled siRNA; parameters: species or system mice; details: intravenous injection, after 4 hours
Experimental: Next, the uptake of the fluorescence-labeled siRNA in orthotopic HCA-1 tumor models via intravenous injection was evaluated after 4 hours.

Compound: CNC(=O)c1cc(Oc2ccc(NC(=O)Nc3ccc(Cl)c(C(F)(F)F)c3)cc2)ccn1 [sorafenib, Sorafenib]
- carbonic anhydrase IX (CAIX) expression (hypoxia) (orthotopic HCA-1 tumor [1]): increase of carbonic anhydrase IX (CAIX) expression
- increase in SDF1α expression in HCA-1 tumor tissues (orthotopic HCA-1 tumor [1]): 3 fold
- increase in number of F4/80+ macrophages (orthotopic HCA-1 tumor [1]): over 3 fold
- lung metastasis (orthotopic HCA-1 tumor [1]): Neither the Positive control group nor the Comparative group showed a reduction in metastasis formation
- mean vessel density (MVD) (orthotopic HCA-1 tumor [1]): significant reduction of MVD
- tumor growth (orthotopic HCA-1 tumor [1]): moderate tumor growth inhibitory effect

Compound: SDF1α
- cell viability (JHH-7 cells [2]): increased the viability
- cell viability (HCA-1 cells [3]): increased the viability

Compound: CCN(CC)c1ccc2cc(-c3nc4ccccc4s3)c(=O)oc2c1 [free C6, coumarin 6]
- C6 in blood after 1 hour [4]: cleared rapidly from the blood after 1 hour
- C6 in blood after 4 hours [4]: almost cleared out after 4 hours

Compound: c1cc(CN2CCCNCCNCCCNCC2)ccc1CN1CCCNCCNCCCNCC1 [AMD3100]
- cytotoxicity / cell viability (JHH-7 cells [5]): did not have a cytotoxic effect
- cytotoxicity / cell viability (HCA-1 cells [6]): did not have a cytotoxic effect

Compound: free anti-VEGF siRNA: anti-VEGF siRNA with sequence 5′-AUGUGAAUGCAGACCAAAGAA-3′ (chemistry not given here)
- VEGF expression (VEGF [7]): no suppression of VEGF expression
- VEGF expression (VEGF [8]): no suppression of VEGF expression
- uptake of fluorescence-labeled siRNA in orthotopic HCA-1 tumor (orthotopic HCA-1 tumor [9]): intracellular uptake can hardly be detected
